Test results taken from PubChem BioAssay AID248 (DTP/NCI, 2004).
Values joined by “and” are separate entries in the source; they are usually repeats but may differ in a detail not shown here. Equal entries are not always repeated. Toxic doses and inconclusive results are not listed. No stated cut-off is given here; in the data, active means T/C of 150% or more; inactive means T/C below 125%.

Tested on: L1210 leukemia ip in BDF1 mice, survival T/C
Assay: NCI In Vivo Anticancer Drug Screen. Data for tumor model L1210 Leukemia (intraperitoneal) in B6D2F1 (BDF1) mice
Conditions: endpoint: mean survival time, higher = longer survival
Method in brief: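 Transplantable tumor model; survival measured in treated vs vehicle control mice. Value = treated/control.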

[1] = dose: 100.0 mg/kg/injection, schedule: Q01DX009 (ip), vehicle: saline with Tween-80
[2] = dose: 200.0 mg/kg/injection, schedule: Q01DX009 (ip), vehicle: saline with Tween-80
[3] = dose: 400.0 mg/kg/injection, schedule: Q01DX009 (ip), vehicle: saline with Tween-80

Measured: T/C

C[P+](c1ccc(Cl)cc1)(c1ccc(Cl)cc1)c1ccc(Cl)cc1
inactive: dose: 6.25 mg/kg/injection, schedule: Q04DX003 (ip), vehicle: saline 114 % of control | dose: 12.5 mg/kg/injection, schedule: Q04DX003 (ip), vehicle: saline 109 % of control | dose: 25.0 mg/kg/injection, schedule: Q04DX003 (ip), vehicle: saline 102 % of control

CCNC(=S)NNc1ccccc1
inactive: dose: 100.0 mg/kg/injection, schedule: Q04DX003 (ip), vehicle: saline with Tween-80 100 % of control | dose: 200.0 mg/kg/injection, schedule: Q04DX003 (ip), vehicle: saline with Tween-80 96 % of control

BrC1CCCCC1Br (stereo not drawn)
inactive: dose: 100.0 mg/kg/injection, schedule: Q01DX001 (ip), vehicle: saline 98 % of control | dose: 200.0 mg/kg/injection, schedule: Q01DX001 (ip), vehicle: saline 101 % of control

COc1ccccc1-c1c(C(=O)O)cccc1[N+](=O)[O-]
inactive: [1] 98 % of control | [2] 106 % of control | [3] 101 % of control

NNS(=O)(=O)c1ccc(OCC(=O)O)cc1
inactive: dose: 100.0 mg/kg/injection, schedule: Q01DX009 (ip), vehicle: Klucel (hydroxypropylcellulose) (HPC) 98 % of control | dose: 100.0 mg/kg/injection, schedule: Q04DX003 (ip), vehicle: Klucel (hydroxypropylcellulose) (HPC) 102 % of control | dose: 200.0 mg/kg/injection, schedule: Q01DX009 (ip), vehicle: Klucel (hydroxypropylcellulose) (HPC) 94 % of control | dose: 200.0 mg/kg/injection, schedule: Q04DX003 (ip), vehicle: Klucel (hydroxypropylcellulose) (HPC) 98 % of control | dose: 400.0 mg/kg/injection, schedule: Q01DX009 (ip), vehicle: Klucel (hydroxypropylcellulose) (HPC) 94 % of control | dose: 400.0 mg/kg/injection, schedule: Q04DX003 (ip), vehicle: Klucel (hydroxypropylcellulose) (HPC) 98 % of control

CCCCCOC(=O)C1OC1(C)c1ccccc1 (stereo not drawn)
inactive: [1] 98 % of control | [2] 91 % of control | [3] 88 % of control

NC(=O)/C=C/c1c[nH]c2nccnc12
inactive: dose: 1.56 mg/kg/injection, schedule: Q01DX009 (ip), vehicle: water 100 % of control | dose: 3.12 mg/kg/injection, schedule: Q01DX009 (ip), vehicle: water 95 % of control | dose: 6.25 mg/kg/injection, schedule: Q01DX009 (ip), vehicle: water 100 % of control | dose: 12.5 mg/kg/injection, schedule: Q01DX009 (ip), vehicle: water 103 % of control | dose: 25.0 mg/kg/injection, schedule: Q01DX009 (ip), vehicle: water 86 % of control and 90 % of control

COCCOC(C)C(=O)C(O)S(=O)(=O)O (stereo not drawn)
inactive: dose: 500.0 mg/kg/injection, schedule: Q01DX Z (oral), vehicle: saline 86 % of control | dose: 1000.0 mg/kg/injection, schedule: Q01DX Z (oral), vehicle: saline 87 % of control

CCC(C)C(C=O)(CCN(C)CC)c1cccc2ccccc12 (stereo not drawn)
inactive: dose: 25.0 mg/kg/injection, schedule: Q04DX002 (ip), vehicle: saline with Tween-80 91 % of control | dose: 50.0 mg/kg/injection, schedule: Q04DX002 (ip), vehicle: saline with Tween-80 94 % of control
